Measurements: paper PMC5994333, “-Chemical profiling and biological activity of Peperomia blanda (Jacq.) Kunth” (PeerJ, 2018)
≈ marks a conversion by molar mass, not a printed value.

What was measured:
[1] = DPPH free radical scavenging assay; conditions: for DPPH IC50: 30 min, 517 nm
Method: The free radical scavenging activities of the extracts, peperomin A and phytosterol mixture were estimated using the 1,1-diphenyl-2-picryl-hydrazyl (DPPH) assay. Quantitative estimation was done in 96-well ELISA plates in triplicate. Complete of 70 µL of DMSO was brought for each well followed by 100 µL of plant extract solution or isolated tested compounds. Various concentrations of each extract and peperomin A (15.6 –1,000 µg/mL) were used. Similar concentrations of ascorbic acid were used as positive control. A total of 30 µL DPPH (3.14 X 10^−3 µM) was added to each well, then the plate was allowed to stand in the dark at 25 °C for 30 min, and the absorbance was later recorded taken at 517 nm. The free radical scavenging activity was calculated using the following equation: Free radical scavenging activity%=Abs of DPPH−Abs of sample∕Abs of DPPH×100%. where Abs is absorbance. The relationship between each concentration and its scavenging percentage was plotted, and the IC50 value was calculated by interpolation. Scavenging activity was represented by IC50 values (the extract concentration that scavenges 50% of DPPH radicals).

[2] = FRAP ferric reducing assay; conditions: for FRAP: 593 nm
Method: The antioxidant power of P. blanda extracts by ferric reduction was done by preparing fresh FRAP reagent from acetate buffer (pH 3.6), a solution of 10 mM TPTZ (2,4,6-tri(2-pyridyl)-s-triazine) in 40 mM HCl and a solution of 20 mM iron (III) chloride in a ratio of 10:1:1 (%v/v) ([Brand-Williams, Cuvelier & Berset, 1995]; [Mohammadzadeh et al., 2007]; [Mothana et al., 2009]; [Salazar-Aranda et al., 2011]), butylated hydroxytoluene (BHT), and ascorbic acid were used as controls. Then, 10 µL of plant extracts, peperomin A, ferrous sulfate (standard) and the controls were added to 300 µL FRAP reagent (triplicate) in the dark and the absorbance was measured at 593 nm. A linear standard curve was constructed using […] FeSO4. The results were represented as the ratio of the concentration of iron(III) mM over the extract dry weight (g).

[3] = system: murine myelomonocytic leukaemia (WEHI-3); experiment: MTT cytotoxicity assay, WEHI-3; type: cell-based; conditions: Mus musculus
Excerpt: (§1) In vitro cytotoxic potency of the investigated extracts was established using the colorimetric (MTT) assay. The three cancer cell lines involved were the human breast adenocarcinoma (MCF-7), murine myelomonocytic leukaemia (WEHI-3) and human promyelocytic leukaemia (HL-60). The three normal cell lines used were the human mammary epithelial cell line (MCF10A), primary dermal fibroblasts cell line (HDFa) and the human hepatic cell line (WRL-68). All cells were from American Type Culture Collection (ATCC) and were subcultured in tissue culture flask (75 cm) with RPMI1640 media mixed with 10% fetal bovine serum and 1% penicillin–streptomycin and kept in an incubator at 5% of CO2 saturation and 37 °C. The following solutions were prepared: crude extracts (dissolved in 1% DMSO) at various concentrations (100, 50, 25, 12.5, 6.3, 3.5, 1.5 and 0 µg/mL); and peperomin A, phytosterol mixture and standard drugs (Taxol and vinblastine) as positive controls at decreasing concentrations (50, 25, 12.5, 6.3, 3.5, 1.5, and 0 µg/mL). N,N′-diphenethyloxamide was not involved in the biological assay because of the low yield obtained. Extracts were incubated with the cancer cell lines for 72 h, and peperomin A and the phytosterol mixture were incubated for 24, 48 and 72 h. After the incubation periods, 20 µL of MTT solution (5 mg/mL) was added to each well and incubated for 4 h. To dissolve the formazan crystals formed, 100 µL of DMSO was added to each well. The IC50 values were calculated from the plot of cancer cell growth versus the concentration of extracts/compounds.

[4] = system: human promyelocytic leukaemia (HL-60); experiment: MTT cytotoxicity assay, HL-60; type: cell-based
Excerpt: as §1

[5] = system: human breast adenocarcinoma (MCF-7); experiment: MTT cytotoxicity assay, MCF-7; type: cell-based; conditions: for IC50: Homo sapiens; for Selectivity index: ratio of mean IC50 in normal MCF10a over mean IC50 in MCF-7: Table 4
Excerpt: as §1

[6] = system: human hepatic cell line (WRL-68); experiment: MTT cytotoxicity assay, normal WRL-68; type: cell-based; conditions: normal cells
Excerpt: as §1

[7] = system: primary dermal fibroblasts cell line (HDFa); experiment: MTT cytotoxicity assay, normal HDFa; type: cell-based; conditions: Homo sapiens, normal cells
Excerpt: as §1

[8] = system: human mammary epithelial cell line (MCF10A); experiment: MTT cytotoxicity assay, normal MCF10A; type: cell-based; conditions: MCF-10A, normal cells
Excerpt: as §1

HIV-1 IIIB = conditions: no reference given; cited from earlier work
C8166 cell line = conditions: no reference given; cited from earlier work

Row | Structure (SMILES) | DPPH IC50 [1] | FRAP [2] | IC50 ([3]; 24 hr) | IC50 ([3]; 48hr) | IC50 ([3]; 72hr) | IC50 ([4]; HL-60, 24 h, 24 hr) | IC50 ([4]; HL-60, 48 h, 48hr) | IC50 ([4]; HL-60, 72 h, 72hr) | IC50 ([5]; MCF7, 24 h, 24 hr) | IC50 ([5]; MCF7, 48 h, 48hr) | IC50 ([5]; MCF7, 72 h, 72hr) | IC50 ([6]; WRL68, 24 hr) | IC50 ([6]; WRL68, 48hr) | IC50 ([6]; WRL68, 72hr) | IC50 ([7]; 24 hr) | IC50 ([7]; 48hr) | IC50 ([7]; 72hr) | IC50 ([8]; 24 hr) | IC50 ([8]; 48hr) | IC50 ([8]; 72hr) | also measured
1 | CC(=O)O[C@H]1C(=O)[C@@]2(C)[C@H]([C@H](OC(=O)c3ccccc3)[C@]3(O)C[C@H](OC(=O)[C@H](O)[C@@H](NC(=O)c4ccccc4)c4ccccc4)C(C)=C1C3(C)C)[C@]1(OC(C)=O)CO[C@@H]1C[C@@H]2O [Paclitaxel] | – | – | 3.16 ± 0.02 µg/mL (≈ 3.7 µM) | 2.15 ± 0.02 µg/mL (≈ 2.52 µM) | 1.9 ± 0.9 µg/mL (≈ 2.23 µM) | 12.7 ± 0.4 µg/mL (≈ 14.9 µM) | 8.67 ± 0.76 µg/mL (≈ 10.2 µM) | 5.13 ± 0.32 µg/mL (≈ 6.01 µM) | 5.87 ± 0.19 µg/mL (≈ 6.87 µM) | 4.47 ± 0.03 µg/mL (≈ 5.23 µM) | 3.56 ± 0.34 µg/mL (≈ 4.17 µM) | > 50 µg/mL | > 50 µg/mL | > 50 µg/mL | > 50 µg/mL | > 50 µg/mL | > 50 µg/mL | > 50 µg/mL | > 50 µg/mL | > 50 µg/mL | IC50 ([5]; MCF7, 72 h, 72 hr, Table 3): 3 ± 0.07 µg/mL (≈ 3.51 µM)
2 | COc1cc(C(c2cc(OC)c3c(c2)OCO3)[C@@H]2COC(=O)[C@H]2C)cc2c1OCO2 [Peperomin A] | 536.61 ± 6.00 µg/mL | 20.79 ± 0.66 M Fe(II)/g | 20.1 ± 0.46 µg/mL (≈ 48.5 µM) | 18.7 ± 0.73 µg/mL (≈ 45.1 µM) | 4.62 ± 0.03 µg/mL (≈ 11.1 µM) | 43.62 ± 0.1 µg/mL (≈ 105 µM) | 26.34 ± 0.26 µg/mL (≈ 63.6 µM) | 16.4 ± 0.62 µg/mL (≈ 39.5 µM) | 40.7 ± 0.92 µg/mL (≈ 98.3 µM) | 9.22 ± 0.28 µg/mL (≈ 22.2 µM) | 5.58 ± 0.47 µg/mL (≈ 13.5 µM) | > 50 µg/mL | > 50 µg/mL | 41.5 ± 0.54 µg/mL (≈ 100 µM) | > 50 µg/mL | > 50 µg/mL | > 50 µg/mL | > 50 µg/mL | > 50 µg/mL | > 50 µg/mL | selectivity index values for cancer cells [5]: greater than 1; Selectivity index: ratio of mean IC50 in normal MCF10a over mean IC50 in MCF-7 ([5]; 24 hr): 1.1; Selectivity index: ratio of mean IC50 in normal MCF10a over mean IC50 in MCF-7 ([5]; 48hr): 1.3; Selectivity index: ratio of mean IC50 in normal MCF10a over mean IC50 in MCF-7 ([5]; 72hr): 7.4; free radical scavenging activity (in words) [1]: weak; ferric reducing power (in words) [2]: weak; inhibitory effects on HIV-1 IIIB growth in C8166 cells (cytopathic effect, CPE) (HIV-1 IIIB): moderate inhibitory effects; cytotoxic activity against the C8166 cell line (C8166 cell line): cytotoxic activity
3 | CC[C@]1(O)C[C@@H]2CN(CCc3c([nH]c4ccccc34)[C@@](C(=O)OC)(c3cc4c(cc3OC)N(C)[C@H]3[C@@](O)(C(=O)OC)[C@H](OC(C)=O)[C@]5(CC)C=CCN6CC[C@]43[C@@H]65)C2)C1 [Vinblastine] | – | – | 4.11 ± 0.06 µg/mL (≈ 5.07 µM) | 3.56 ± 0.07 µg/mL (≈ 4.39 µM) | – | 5.91 ± 0.31 µg/mL (≈ 7.29 µM) | 4.81 ± 0.19 µg/mL (≈ 5.93 µM) | 2.36 ± 0.08 µg/mL (≈ 2.91 µM) | 14.6 ± 0.16 µg/mL (≈ 18 µM) | 7.57 ± 0.5 µg/mL (≈ 9.33 µM) | 5.16 ± 0.42 µg/mL (≈ 6.36 µM) | > 50 µg/mL | > 50 µg/mL | > 50 µg/mL | > 50 µg/mL | > 50 µg/mL | > 50 µg/mL | > 50 µg/mL | > 50 µg/mL | > 50 µg/mL | IC50 ([3]; 72 hr, Table 3): 0.57 ± 0.035 µg/mL (≈ 0.703 µM); IC50 ([4]; HL-60, 72 h, 72 hr, Table 3): 5 ± 0.01 µg/mL (≈ 6.17 µM)
4 | COc1cc([C@@H](c2cc(OC)c3c(c2)OCO3)[C@@H]2COC(=O)[C@H]2C)cc(OC)c1OC [peperomin B] | – | – | – | – | – | – | – | – | – | – | – | – | – | – | – | – | – | – | – | – | inhibitory effects on HIV-1 IIIB growth in C8166 cells (cytopathic effect, CPE) (HIV-1 IIIB): moderate inhibitory effects; cytotoxic activity against the C8166 cell line (C8166 cell line): cytotoxic activity

Now from value to compound, other results behind:

Row | DPPH IC50 [1] | Structure (SMILES) | FRAP [2] | IC50 ([3]; 24 hr) | IC50 ([3]; 48hr) | IC50 ([3]; 72hr) | IC50 ([4]; HL-60, 24 h, 24 hr) | IC50 ([4]; HL-60, 48 h, 48hr) | IC50 ([4]; HL-60, 72 h, 72hr) | IC50 ([5]; MCF7, 24 h, 24 hr) | IC50 ([5]; MCF7, 48 h, 48hr) | IC50 ([5]; MCF7, 72 h, 72hr) | IC50 ([6]; WRL68, 24 hr) | IC50 ([6]; WRL68, 48hr) | IC50 ([6]; WRL68, 72hr) | IC50 ([7]; 24 hr) | IC50 ([7]; 48hr) | IC50 ([7]; 72hr) | IC50 ([8]; 24 hr) | IC50 ([8]; 48hr) | IC50 ([8]; 72hr) | also measured
5 | 286.64 ± 8.54 µg/mL | Cc1cc(C(C)(C)C)c(O)c(C(C)(C)C)c1 [BHT, butylated hydroxytoluene] | 1738.80 ± 9.53 M Fe(II)/g | – | – | – | – | – | – | – | – | – | – | – | – | – | – | – | – | – | – | –
6 | 20.40 ± 0.50 µg/mL | O=C1O[C@H]([C@@H](O)CO)C(O)=C1O [VIT C, ascorbic acid] | 2603.90 ± 10.54 M Fe(II)/g | – | – | – | – | – | – | – | – | – | – | – | – | – | – | – | – | – | – | –
